Experimental data: patent US20250268863A1, “DOSING REGIMENS FOR TREATMENT OF PATIENTS WITH LOCALLY ADVANCED SQUAMOUS CELL CARCINOMA” (priority 2019, published 2025)
“Also recorded” adds a separate entry of the source.

What was measured:
[1] = test system: locally advanced squamous cell cancer of the head and neck (LA-SCCHN); experiment: Double-blind randomised placebo-controlled Phase II study of Debio 1143 + CRT: safety
Method: A double-blind randomized placebo-controlled Phase II study was conducted. […] All subjects received 100 mg/m^2 cisplatin on day 2 of each three-week cycle (up to three cycles) concomitantly with radiotherapy (RT). The subjects also received standard fractionation RT with 2 Gy/daily on five days/week for seven weeks up to 70 Gy delivered to the gross-tumor volume (GTV) and 50 Gy to eligible lymph nodes loco-regionally.
Conventional fractionated intensity modulated radiotherapy (IMRT) was delivered to the gross tumour volume (GTV, [primary tumour and involved nodes]), to a total dose of 70 Gy in 2 Gy daily fractions, for 5 days per week over 7 weeks. Primary and neck nodal areas with no tumour involvement (elective/prophylactic irradiation areas) received a total dose of 50 Gy. In accordance with the European Society of Medical Oncology guidelines, patients received prophylactic treatment with granisetron or palonosetron, dexamethasone and aprepitant, prior to and after cisplatin to prevent renal damage and emesis.
Medical history and demographics were collected at screening. Physical examination was conducted at screening, on day 1 of each cycle, at the end of study visit, at the safety follow-up visit and at each subsequent efficacy follow-up visit. Adverse events and co-medication were monitored throughout the study from signature of informed consent (28 days prior to the first dose) until 30 days after the last dose of study drug. Adverse events were graded according to Common Terminology Criteria for Adverse Events (NCI CTCAE) version 4⋅03. All information pertaining to unusual manifestations or adverse events was collected by the investigator at each visit. […] Late toxicities were defined in the protocol and monitored throughout the efficacy follow-up period until the end of study visit.

[2] = test system: locally advanced squamous cell cancer of the head and neck (LA-SCCHN); experiment: Dose escalation of Debio 1143 with concurrent chemoradiotherapy (MTD determination); format: in vivo
Method: Additionally, for each Debio 1143 dose level (DL) and overall, according to variant 1 of this example: • (a) the safety profile of Debio 1143 in combination with concurrent CRT was assessed; • (b) the antitumour activity of the recommended dose (RD) of Debio 1143 in combination with concurrent CRT in the study population was evaluated. • In a variant 2 of this example, the following items (c) to (f) were explored in addition to items (a) and (b) of variant 1: • (c) the pharmacokinetics (PK) of Debio 1143 and cisplatin when administered in combination with radiation therapy, and explore the potential for drug-drug interactions of Debio 1143 in combination with cisplatin was explored; • (d) the pharmacodynamic (PDy) biomarkers of Debio 1143 activity in combination with concurrent CRT were explored; • (e) the PK/PDy, PK/efficacy, PK/safety, PDy/efficacy and PDy/safety relationships and pharmacogenetic (PGx) factors that may affect Debio 1143 PK were explored; and • (f) the pharmacogenomic and tumour PGx factors were explored.
During the screening phase, subjects were evaluated and staged using the American Joint Committee on Cancer (“AJCC”) […] staging system.
Escalating doses of Debio 1143 were added to CRT. […] The starting dose of Debio 1143 in this combination study was 100 mg/day over 14 days every 21 days. […]

[3] = test system: locally advanced squamous cell cancer of the head and neck (LA-SCCHN); experiment: Double-blind randomised placebo-controlled Phase II study of Debio 1143 + CRT: efficacy; format: in vivo, human; conditions: for Locoregional control rate at 18 months after CRT: 200 mg/day days 1-14 q3w + cisplatin CRT, N = 48 (ITT); for complete response / partial response: of 48 patients
Method: 96 patients were randomized 95 were treated.
The primary endpoint to the study was locoregional control rate (LRC) at 18 months after CRT. Key secondary endpoints included PFS, duration of LRC, overall survival, […] and CR at 3 and 6 months after CRT completion.
The main inclusion criteria were as follows: • Previously untreated, inoperable (unresectable) Stage III, Stage IVA, or Stage IVB as per AJCC TNM staging version 7.0 (2010) • LA-SCCHN of the oral cavity, hypopharynx, larynx, or oropharynx (HPV/p16 both negative or positive) • Heavy smoking history (>10 pack-years) • Negative HIV/HBV/HCV • Performance Status by Eastern Cooperative Oncology Group (ECOG)=0 or 1.
The main exclusion criteria were as follows: • Non-compensated liver cirrhosis (Child-Pugh class C) • >75 years • Non-cisplatin eligible.
A multicentre, phase 2, double-blind, randomised, placebo-controlled study was conducted to evaluate the safety and efficacy of oral Debio 1143 at 200 mg/day on Days 1-14 of 21-Day cycles combined with concomitant cisplatin-based chemoradiotherapy in patients with LA-SCCHN. Male and female patients were eligible if they were aged 18 to 75 years with histologically confirmed LA-SCCHN and fulfilled the following criteria: previously untreated, stage III, IVa or IVb (according to the American Joint Committee on Cancer 2010 staging system [AJCC TNM v7.0 2010]) of one or more of the following sites: oral cavity, oropharynx, hypopharynx and larynx and with T 2-4, N0-3, M0 measurable disease according to Response Evaluation Criteria in Solid Tumours (RECIST), version 1⋅1. Patients were to have a smoking history of more than 10 pack-years, and no medical history of hepatitis B or hepatitis C. For patients with oropharyngeal cancer, tumour HPV-status was determined by the presence of p16 using immunohistochemistry. Other inclusion criteria included: Eastern Cooperative Oncology Group (ECOG) performance status of 0 or 1, no clinically significant cardiac disease and no clinically significant hearing impairment that would have contraindicated the use of chemotherapy with HD-cisplatin.
Exclusion criteria included nasopharyngeal, paranasal sinuses, nasal cavity tumours or thyroid cancers, squamous cell cancer involving cervical neck nodes but from unknown primary site, unknown lymph node status, metastatic disease, any prior or current treatment for invasive head and neck cancer of any kind (including, but not limited to, prior tyrosine kinase inhibitors, prior neoadjuvant therapy, prior surgical resection, or use of any investigational agent), weight loss of >10% during the previous month, non-compensated liver cirrhosis, gastro-intestinal disorders that could affect drug absorption, concurrent treatment with any other systemic anticancer therapy or concomitant treatment with any drug on the prohibited medication list, history of uncontrolled or symptomatic angina, arrhythmias, or congestive heart failure, history of another malignancy within the last 5 years with the exception of completely resected basal or squamous cell skin cancer or successfully treated in-situ carcinoma, history of non-invasive lesion or in-situ carcinoma, including in the head and neck region that was successfully treated with surgery, peripheral neuropathy (grade 2 or above), clinical hearing loss, history of allergic reactions to appropriate antiemetics, human immunodeficiency virus infection. The protocol was approved by the institutional review boards or ethics committees of all participating centres. The study was carried out in accordance with the protocol, the principles expressed in the Declaration of Helsinki, and applicable regulatory requirements. All patients provided written informed consent in advance of study-specific procedures. […]

[4] = as of 21 Jul. 2020, median follow-up 33 months
[5] = first tumour evaluation, approximately 11 weeks after chemoradiotherapy
[6] = six months post chemoradiotherapy
[7] = two-year follow-up, data cut off 15 Jul. 2019

## CN[C@@H](C)C(=O)N[C@H]1CN(C(=O)CC(C)C)CC[C@H]2CC[C@@H](C(=O)NC(c3ccccc3)c3ccccc3)N2C1=O [Debio 1143, (5S,8S,10aR)—N-benzhydryl-5-[[(2S)-2-(methylamino)propanoyl]amino]-3-(3-methylbutanoyl)-6-oxo-1,2,4,5,8,9,10,10a-octahydropyrrolo[1,2-a][1,5]diazocine-8-carboxamide]
[1]; data cut off 15 Jul. 2019
  patients who died: 14 patients
[1]; in vivo
  grade 3 bilirubin increases: no grade 3 bilirubin increases
  grade 4 transaminase increases: no grade 4 transaminase increases
[1]; most common event leading to dose reduction
  patients with alanine aminotransferase increase leading to dose reduction: 10%
[1]; of 48 patients
  patients who discontinued Debio 1143: 15%
  patients with adverse events of at least grade 3: 85%
  patients with grade 1-2 tinnitus: 31%
  patients with grade 4 events: 19%
  patients with grade 5 events: none
  patients with serious treatment-emergent adverse events: 63%
  patients with treatment-emergent adverse events leading to dose reductions of Debio 1143: 19%
[1]; onset >60 days after CRT end, vs placebo
  late toxicities: very similar and not increased; also recorded: late toxicity was balanced
[1]; renal insufficiency, febrile neutropenia, thrombocytopenia, peripheral sensory neuropathy, severe vomiting, exception grade 1-2 tinnitus
  frequency or severity of cisplatin-associated adverse events: did not increase the frequency or severity
[1]; vs placebo + CRT
  overall safety and tolerability of Debio 1143 added to chemoradiotherapy: well tolerated; also recorded: remained unchanged
[1]; vs placebo group
  grade 3 increases in aspartate aminotransferase and alanine aminotransferase: higher
  incidence of grade 3 anaemia: higher incidence
  incidence of grade 4 neutropenia: higher incidence
[2]; high risk LA-SCCHN subjects
  efficacy versus CRT+placebo: significantly improves efficacy
[2]; oral daily for 14 days every three weeks, with cisplatin 100 mg/m^2 and RT 70 Gy
  maximum tolerated dose (MTD): 200 mg
[3]
  Locoregional control rate at 18 months after CRT: 54%
[3]; listed as Debio 1143 + CRT
  Locoregional control rate at 18 months after CRT: 54.2%
[3]; N = 48 per arm
  Odds Ratio for locoregional control at 18 months (Debio 1143 vs Placebo): 2.69
[3]; as of 21 Jul. 2020
  3 years OS rate: 66%
  Kaplan-Meier estimate of locoregional control at 36 months after the end of chemoradiotherapy: 78%
  hazard ratio, duration of locoregional control vs placebo: 0.47
  median duration of locoregional control: not reached
  probability of PFS at 36 months: 72%
  reduction of the risk of disease progression or death vs placebo: 66%
[3]; as of 21 Jul. 2020, 36 months of follow up
  hazard ratio, PFS vs placebo: 0.34
[3]; [4]
  hazard ratio, overall survival vs placebo: 0.49
  median OS: not reached
  reduction of the risk of mortality vs placebo: 51%
[3]; by 24 months
  median overall survival: not yet reached
[3]; data cut off 15 Jul. 2019
  Kaplan-Meier estimate of locoregional control at 18 months after the end of chemoradiotherapy: 78%
  hazard ratio, duration of locoregional control vs placebo: 0.53
  median duration of locoregional control: not reached
  median progression-free survival: not reached
  proportion of patients progression-free at 24 months: 72%
[3]; [5]
  complete response: 35%
  partial response: 27%
[3]; [6]
  complete response: 52%
  partial response: 15%
[3]; [7]
  hazard ratio, overall survival vs placebo: 0.65
  hazard ratio, progression-free survival vs placebo: 0.37
